Experimental data from paper PMC9865645, “The Impact of N^ε-Acryloyllysine Piperazides on the Conformational Dynamics of Transglutaminase 2” (International Journal of Molecular Sciences, 2023).

Molecular target: T1, commercial His6-hTGase 2 (Homo sapiens, UniProt P21980)
T1 construct: purchased Zedira (Darmstadt, Germany) T022, lot 0716a
T1 sequence (P21980 1-687): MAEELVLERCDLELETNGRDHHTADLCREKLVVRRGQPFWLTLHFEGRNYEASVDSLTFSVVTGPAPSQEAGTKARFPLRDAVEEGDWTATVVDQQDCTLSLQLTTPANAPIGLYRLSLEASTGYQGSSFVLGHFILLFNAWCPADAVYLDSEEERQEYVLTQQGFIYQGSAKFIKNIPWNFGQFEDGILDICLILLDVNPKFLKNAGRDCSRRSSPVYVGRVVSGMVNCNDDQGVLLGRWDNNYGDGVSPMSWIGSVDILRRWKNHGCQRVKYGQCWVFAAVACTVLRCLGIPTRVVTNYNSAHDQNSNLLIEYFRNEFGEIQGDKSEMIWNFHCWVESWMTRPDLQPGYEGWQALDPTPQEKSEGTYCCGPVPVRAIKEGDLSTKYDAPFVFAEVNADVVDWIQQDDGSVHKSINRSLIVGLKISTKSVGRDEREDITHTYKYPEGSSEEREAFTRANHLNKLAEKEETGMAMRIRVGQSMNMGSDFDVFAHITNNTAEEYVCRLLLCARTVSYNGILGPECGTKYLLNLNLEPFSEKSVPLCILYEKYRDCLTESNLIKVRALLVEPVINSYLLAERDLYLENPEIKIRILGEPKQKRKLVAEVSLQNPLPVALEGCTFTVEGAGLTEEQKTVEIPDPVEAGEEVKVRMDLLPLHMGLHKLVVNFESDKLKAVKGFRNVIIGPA
Experiment: fluorescence anisotropy (FA)-based transamidase activity assay, commercial His6-hTGase 2
Format: biochemical
Experimental: For the analysis of inhibitor 1 on self-produced hTGase 2, 2 µg/mL of the enzyme was used to guarantee comparability with the value reported by Wodtke et al., whereas all other experiments were performed with 5 µg/mL of either commercial or self-produced hTGase 2 (corresponding to 64.1 and 61.6 nM, respectively, when assuming 100% active protein). Parallel and perpendicular fluorescence intensities were measured over 1190 s in 35 s intervals (1) or over 1776 s in 48 s intervals (2, 3) and used to calculate the FA. Data of FA for the first 875 s (1) or 384 s (2, 3) were analyzed by linear regression, with slopes corresponding to enzymatic rates. Rates in the presence of inhibitor were normalized by dividing them by the respective rate in the absence of inhibitor, and normalized rates were analyzed according to Equation (S29) in Supplementary Materials to calculate values of IC50. Data analysis was performed with Microsoft Excel (Microsoft Office Professional Plus 2016, Microsoft® Corporation, USA) and GraphPad Prism version 5.03 or version 6.07 for Windows (GraphPad Software, La Jolla, CA, USA).

C=CC(=O)NCCCC[C@H](NC(=O)Cc1ccccc1I)C(=O)N1CCN(c2ccc([N+](=O)[O-])nc2)CC1 [Compound 2, N^α-(2-Iodophenylacetyl)-N^ε-acryloyl-L-lysin-4-(2-nitropyridin-5-yl)piperazide] was tested, and the IC50 (5 min pre-incubation of enzyme and inhibitor, mean (SEM) of three experiments) was 154 nM, the IC50 (30 min pre-incubation, hTGase 2 (Zedira) 64.1 nM, mean (SEM)) was 47.4 nM and the “ratio of the IC50 and the molar enzyme concentration” value (FA assay, 30 min pre-incubation, range over in-house and commercial hTGase 2) was 0.57–0.74. It also gave an IC50 (FA assay, 30 min pre-incubation, range over in-house and commercial hTGase 2 (62–64 nM)) of 35 to 47 nM.
